Article PMC13576449, “Small-Molecule Activators of PRMT1: Discovery, SAR Analyses, and Proapoptotic Effects in Pancreatic Cancer Cells” (Journal of Medicinal Chemistry, 2026)

Columns and labels:
FLAG-tagged PRMT3 = biological target: T1, FLAG-tagged PRMT3 (Homo sapiens, UniProt O60678); test: Fluorescence-based in vitro PRMT assay (F-PRMT assay), PRMT3; format: biochemical; conditions: for Experimental result (PRMT3): vs solvent control = 100%
T1 construct: The complete ORFs of human PRMT3 and PRMT6 were inserted; made in house; host or cells: Sf9 insect cells (baculovirus)
T1 sequence (O60678 whole entry): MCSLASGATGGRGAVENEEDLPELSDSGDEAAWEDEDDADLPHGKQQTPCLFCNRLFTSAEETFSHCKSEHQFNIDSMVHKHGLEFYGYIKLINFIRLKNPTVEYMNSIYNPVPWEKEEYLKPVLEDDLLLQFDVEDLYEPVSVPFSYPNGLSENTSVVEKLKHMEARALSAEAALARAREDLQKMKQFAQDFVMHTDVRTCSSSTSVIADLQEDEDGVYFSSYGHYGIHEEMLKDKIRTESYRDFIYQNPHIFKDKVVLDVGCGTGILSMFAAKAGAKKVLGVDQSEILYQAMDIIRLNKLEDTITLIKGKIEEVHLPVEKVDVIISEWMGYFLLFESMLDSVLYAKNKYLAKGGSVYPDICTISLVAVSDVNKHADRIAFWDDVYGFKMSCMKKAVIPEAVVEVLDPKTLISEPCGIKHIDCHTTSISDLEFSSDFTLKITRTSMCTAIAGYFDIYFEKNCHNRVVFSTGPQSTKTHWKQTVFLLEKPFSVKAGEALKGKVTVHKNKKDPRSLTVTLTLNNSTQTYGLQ
Description: To evaluate the effects of the selected candidate molecules on the catalytic activity of type I enzymes, we employed a quantitative fluorescence-based in vitro PRMT activity (F-PRMT) assay using recombinant FLAG-tagged PRMT proteins expressed and affinity-purified from baculovirus-infected Sf9 cells (SI Figure S1, SI Figure S2A).
Human cell lines (PaTu8988T, PANC-1) were obtained from ATCC (American Type Culture Collection) and cultured in DMEM supplemented with 10% fetal calf serum (FCS, Gibco/BRL), 1% penicillin/streptomycin at 37 °C and 5% CO2. […] For PRMT1 inhibition, cells were treated with type I PRMT inhibitor MS023 hydrochloride (Biomol). For induction of genotoxic stress, cells were treated with gemcitabine (LC Laboratories). […] The following plasmids were used: pFASTBAC-FLAG-rat PRMT1, pFASTBAC-FLAG-mouse PRMT4, and pGEX-GAR. The complete ORFs of human PRMT3 and PRMT6 were inserted into the pFASTBAC HT-3xFLAG B vector via BamHI/HindIII and BamHI/XhoI sites, respectively.
For PRMT protein expression in insect cells, recombinant baculovirus (bacmid) was generated using the Bac-to-Bac baculovirus system (Invitrogen). Sf9 cells were transfected with bacmid DNA using X-tremeGENE HP DNA transfection reagent (Sigma-Aldrich) according to the manufacturer's instructions. After 3–5 days, supernatants were collected, filtered, and used to infect Sf9 cells to amplify the virus. After 2 rounds of virus amplification and estimation of the final P3 virus titer, the P3 virus (2–5 μL/10^6 cells) was applied for large-scale infection of 200 × 10^6 Sf9 cells in suspension culture at a density of 1 × 10^6 cells/mL. Cells were harvested 5–6 days post-infection by centrifugation at 500 g for 5 min at room temperature. Protein purification from baculovirus-infected Sf9 cells was performed as previously described. , Cells were lysed in BC buffer (20 mM HEPES pH 7.9, 250 mM NaCl, 10% (v/v) glycerin, 0.4 mM EDTA, 1 mM DTT) containing a protease inhibitor cocktail (Roche) by 3 freeze-thaw cycles. After centrifugation at 11,000 rpm (Sorval SS34 rotor) and 4 °C for 1 h, the supernatant (whole cell protein extract) was incubated with anti-FLAG M2 Affinity Gel (Cytiva) at 4 °C and under agitation for 4 h. Subsequently, beads were washed in BC buffer containing various NaCl concentrations (once in BC with 1 M NaCl, twice in BC with 500 mM NaCl, twice in BC with 250 mM NaCl and twice in BC with 100 mM NaCl). FLAG-tagged proteins were either maintained bead-bound as a 50% (v/v) slurry in BC buffer with 100 mM NaCl and stored at −80 °C or were eluted in the appropriate elution buffer (depending on the subsequent assay) containing 0.25 mg/mL 3xFLAG peptides (Sigma-Aldrich) at 4 °C for 30–45 min. To remove the FLAG-peptides from the eluate, dialysis was performed in elution buffer containing 10% (v/v) glycerol at 4 °C for 4–6 h using Slide-A-Lyzer Dialysis Devices (Thermo Fisher Scientific) according to the manufacturer’s recommendations.
In the first step, the fluorogenic substrate Nα-Benzoyl-L-arginine-7-amido-4-methylcoumarin (Bz-Arg-AMC, Sigma-Aldrich) undergoes methylation by PRMTs upon the addition of the cofactor SAM. In the second reaction step, trypsin cleaves the nonmethylated substrate, leading to the generation of the 7-amino-4-methylcoumarin product, which can be quantified by subsequent fluorescence measurement (excitation: 355 nm, emission: 460 nm). The first reaction was conducted with bead-bound PRMTs at a total volume of 100 μL. Each condition was performed as a technical triplicate to determine the mean and the standard deviation. […] For the negative controls, SAM was substituted with assay buffer. The incubation was continued at 37 °C and under agitation (1,000 rpm) for a duration of 2 h.

FLAG-tagged PRMT4 = biological target: T2, FLAG-tagged PRMT4 (Mus musculus, UniProt Q9WVG6); test: Fluorescence-based in vitro PRMT assay (F-PRMT assay), PRMT4; format: biochemical; conditions: for Experimental result (PRMT4): vs solvent control = 100%
T2 construct: Full-length FLAG-tagged PRMT protein; made in house; host or cells: Sf9 insect cells (baculovirus)
T2 sequence (Q9WVG6 1-608): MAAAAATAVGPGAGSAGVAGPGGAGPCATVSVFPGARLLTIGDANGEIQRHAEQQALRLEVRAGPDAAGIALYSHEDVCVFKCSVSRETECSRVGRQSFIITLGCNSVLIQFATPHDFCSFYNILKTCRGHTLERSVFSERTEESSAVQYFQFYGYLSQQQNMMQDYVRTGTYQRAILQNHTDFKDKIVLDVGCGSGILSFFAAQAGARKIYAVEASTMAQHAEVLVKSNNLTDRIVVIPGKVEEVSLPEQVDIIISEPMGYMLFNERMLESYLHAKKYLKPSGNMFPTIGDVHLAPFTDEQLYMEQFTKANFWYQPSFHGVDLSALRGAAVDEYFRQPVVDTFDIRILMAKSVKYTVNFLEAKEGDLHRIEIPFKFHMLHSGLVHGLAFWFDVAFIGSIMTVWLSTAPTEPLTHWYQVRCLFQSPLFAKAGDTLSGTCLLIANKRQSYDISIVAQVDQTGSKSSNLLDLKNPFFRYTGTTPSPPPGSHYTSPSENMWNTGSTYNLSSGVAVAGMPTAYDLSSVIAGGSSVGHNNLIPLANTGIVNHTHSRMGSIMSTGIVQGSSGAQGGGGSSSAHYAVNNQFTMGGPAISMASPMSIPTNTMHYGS
How it was run: (§1)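 Baculovirus/Sf9-expressed FLAG-PRMTs (human PRMT3, PRMT6; mouse PRMT4), anti-FLAG purified and used bead-bound, methylated Bz-Arg-AMC with SAM for 2 h at 37 °C, 1,000 rpm. Technical triplicates; no-SAM negative controls.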

FLAG-tagged PRMT6 = biological target: T3, FLAG-tagged PRMT6 (Homo sapiens, UniProt Q96LA8); test: Fluorescence-based in vitro PRMT assay (F-PRMT assay), PRMT6; format: biochemical; conditions: for Experimental result (PRMT6): vs solvent control = 100%
T3 construct: The complete ORFs of human PRMT3 and PRMT6 were inserted; made in house; host or cells: Sf9 insect cells (baculovirus)
T3 sequence (Q96LA8 whole entry): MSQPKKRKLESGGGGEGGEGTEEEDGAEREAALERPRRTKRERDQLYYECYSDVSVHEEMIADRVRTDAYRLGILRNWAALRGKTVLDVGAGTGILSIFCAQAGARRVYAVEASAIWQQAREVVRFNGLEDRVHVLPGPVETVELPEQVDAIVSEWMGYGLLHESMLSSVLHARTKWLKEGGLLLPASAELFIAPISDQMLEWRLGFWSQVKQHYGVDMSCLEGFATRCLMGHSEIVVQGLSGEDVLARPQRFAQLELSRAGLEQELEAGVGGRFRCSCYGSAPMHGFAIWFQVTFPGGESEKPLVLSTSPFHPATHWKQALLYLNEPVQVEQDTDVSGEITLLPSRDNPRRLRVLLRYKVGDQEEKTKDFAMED
How it was run: as §1

[1] = Tolerability, body weight monitoring of xenograft mice; conditions: female athymic nude mice, 150 mg/kg TR-07 daily, 10 mg/kg gemcitabine every second day, 2 weeks
[2] = Table 1, 100 μM compound, 2 μM PRMT, n = 3, racemates used

| Molecule | effect on PRMT3 activity (in words) (FLAG-tagged PRMT3; 100 μM compound) | Experimental result (PRMT3) (FLAG-tagged PRMT3; [2]) | Experimental result (PRMT3) (FLAG-tagged PRMT3; Table S3, 100 µM compound, n≥3) | effect on PRMT4 activity (in words) (FLAG-tagged PRMT4; 100 μM compound) | Experimental result (PRMT4) (FLAG-tagged PRMT4; [2]) | Experimental result (PRMT4) (FLAG-tagged PRMT4; Table S3, 100 µM compound, n≥3) | effect on PRMT6 activity (in words) (FLAG-tagged PRMT6; 100 μM compound) | Experimental result (PRMT6) (FLAG-tagged PRMT6; [2]) | Experimental result (PRMT6) (FLAG-tagged PRMT6; Table S3, 100 µM compound, n≥3) | tolerability (adverse or systemic toxic effects, body weights) [1] |
| --- | --- | --- | --- | --- | --- | --- | --- | --- | --- | --- |
| CN(C)Cc1cccc(CN/C=C2\C(=O)NC(=O)c3ccccc32)c1.Cl [TR-07, (Z)-1-[3-({[(1,3-Dioxo-2,3-dihydroisoquinolin-4(1H)-lidene)methyl]amino}methyl)phenyl]-N,N-dimethylmethanaminium chloride] | neither positively nor negatively influencing | PRMT3 n.e. (Compounds, which did not significantly affect the catalytic activity (less than ±6% change or not significant p-value), are marked with [drawing 8] (no effect)) | n.e. (did not significantly affect the catalytic activity (less than ±6% change or not significant p-value), are marked with n.e. (no effect)) | neither positively nor negatively influencing | PRMT4 n.e. (Compounds, which did not significantly affect the catalytic activity (less than ±6% change or not significant p-value), are marked with [drawing 8] (no effect)) | n.e. (did not significantly affect the catalytic activity (less than ±6% change or not significant p-value), are marked with n.e. (no effect)) | neither positively nor negatively influencing | PRMT6 n.e. (Compounds, which did not significantly affect the catalytic activity (less than ±6% change or not significant p-value), are marked with [drawing 8] (no effect)) | n.e. (did not significantly affect the catalytic activity (less than ±6% change or not significant p-value), are marked with n.e. (no effect)) | well tolerated |
| (Z)-2-(2-{[(1,3-Dioxo-2,3-dihydroisoquinolin-4(1H)-ylidene)methyl]amino}phenyl)-N,N-dimethylethan-1-aminium chloride [ICTR-059] | concomitant PRMT3 activation |  |  |  |  |  |  |  |  |  |
